Tests used:
[1] = target: T1, MKK4 (Homo sapiens, UniProt P45985); assay: KINOMEscan competition binding assay, MKK4; conditions: read-out: Potency MKK4 (derived from % of control values, PoC)
T1 sequence (P45985 84-399): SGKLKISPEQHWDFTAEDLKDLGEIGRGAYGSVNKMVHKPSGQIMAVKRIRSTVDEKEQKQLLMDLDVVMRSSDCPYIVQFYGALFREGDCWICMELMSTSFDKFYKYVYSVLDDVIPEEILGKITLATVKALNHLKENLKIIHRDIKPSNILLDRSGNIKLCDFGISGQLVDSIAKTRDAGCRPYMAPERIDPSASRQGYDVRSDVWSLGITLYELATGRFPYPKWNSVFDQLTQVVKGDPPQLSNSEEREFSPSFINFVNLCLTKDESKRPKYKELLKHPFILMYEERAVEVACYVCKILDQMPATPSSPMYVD
Experimental: (§1) For investigation of the affinity to MKK4, MKK7 and JNK1, the kinases were produced in HEK-293 cells and subsequently tagged with DNA for qPCR detection. […] The liganded beads were blocked with excess biotin and washed with blocking buffer (SEABLOCK™ (Pierce), 1% BSA, 0.05% TWEEN®20, 1 mM DTT) to remove unbound ligand and to reduce nonspecific binding. […] All reactions were performed in polystyrene 96-well plates in a final volume of 0.135 mL. […] The kinase concentration in the eluates was measured by qPCR.

[2] = target: JNK1 (Homo sapiens, UniProt P45983); assay: KINOMEscan competition binding assay, selectivity JNK1 versus MKK4; conditions: ratio of percent of control
Sequence of JNK1 (P45983 1-384 isoform P45983-2): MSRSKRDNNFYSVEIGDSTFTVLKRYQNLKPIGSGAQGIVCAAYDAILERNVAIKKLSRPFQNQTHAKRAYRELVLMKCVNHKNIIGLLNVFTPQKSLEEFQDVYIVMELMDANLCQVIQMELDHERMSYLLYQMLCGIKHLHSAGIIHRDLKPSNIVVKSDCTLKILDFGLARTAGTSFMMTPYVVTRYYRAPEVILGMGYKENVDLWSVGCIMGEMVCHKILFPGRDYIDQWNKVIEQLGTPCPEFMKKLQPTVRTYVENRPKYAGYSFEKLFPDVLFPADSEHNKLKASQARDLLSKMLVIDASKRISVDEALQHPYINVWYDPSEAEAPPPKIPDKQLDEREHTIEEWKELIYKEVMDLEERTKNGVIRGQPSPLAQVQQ
Experimental: as §1

[3] = target: BRaf (Homo sapiens, UniProt P15056); assay: KINOMEscan competition binding assay, selectivity BRaf versus MKK4; conditions: Test conc. 0.1 μM; ratio of percent of control; N/E* per footnote
Sequence of BRaf (P15056 whole entry): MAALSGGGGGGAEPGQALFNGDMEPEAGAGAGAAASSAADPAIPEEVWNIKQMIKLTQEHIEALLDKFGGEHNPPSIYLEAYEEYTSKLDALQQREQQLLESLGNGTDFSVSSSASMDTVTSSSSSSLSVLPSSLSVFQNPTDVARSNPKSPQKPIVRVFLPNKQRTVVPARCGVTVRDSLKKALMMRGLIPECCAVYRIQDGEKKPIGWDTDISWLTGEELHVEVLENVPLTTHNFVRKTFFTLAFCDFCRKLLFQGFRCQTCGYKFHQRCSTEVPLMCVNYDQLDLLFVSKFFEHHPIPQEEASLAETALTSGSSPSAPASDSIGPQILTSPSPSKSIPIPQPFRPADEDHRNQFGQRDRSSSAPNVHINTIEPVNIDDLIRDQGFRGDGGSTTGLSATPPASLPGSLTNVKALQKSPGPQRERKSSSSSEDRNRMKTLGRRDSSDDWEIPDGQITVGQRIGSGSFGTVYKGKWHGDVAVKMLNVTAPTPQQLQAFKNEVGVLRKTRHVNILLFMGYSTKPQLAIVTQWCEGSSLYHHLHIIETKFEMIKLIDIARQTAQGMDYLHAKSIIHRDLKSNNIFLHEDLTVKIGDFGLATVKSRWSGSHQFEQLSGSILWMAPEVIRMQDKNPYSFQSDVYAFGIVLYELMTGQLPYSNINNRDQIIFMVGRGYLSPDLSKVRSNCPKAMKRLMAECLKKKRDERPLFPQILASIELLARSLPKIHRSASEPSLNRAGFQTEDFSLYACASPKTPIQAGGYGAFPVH
Experimental: The assay was performed by combining three components: DNA-tagged kinase; immobilized ligand; and a test compound. The ability of the test compound to compete with the immobilized ligand was measured via quantitative PCR of the DNA tag. The technology is described in detail in Fabian, M. A. et al. A small molecule-kinase interaction map for clinical kinase inhibitors. Nat. […] Nat.
The test compounds were provided as 10 mM stock solutions. The test solutions at indicated final concentrations were prepared at DiscoverX.

[4] = target: T2, MKK7 (Homo sapiens, UniProt O14733); assay: KINOMEscan competition binding assay, selectivity MKK7 versus MKK4; conditions: Test conc. 0.1 μM; ratio of percent of control; N/E* per footnote
T2 sequence (O14733 1-419): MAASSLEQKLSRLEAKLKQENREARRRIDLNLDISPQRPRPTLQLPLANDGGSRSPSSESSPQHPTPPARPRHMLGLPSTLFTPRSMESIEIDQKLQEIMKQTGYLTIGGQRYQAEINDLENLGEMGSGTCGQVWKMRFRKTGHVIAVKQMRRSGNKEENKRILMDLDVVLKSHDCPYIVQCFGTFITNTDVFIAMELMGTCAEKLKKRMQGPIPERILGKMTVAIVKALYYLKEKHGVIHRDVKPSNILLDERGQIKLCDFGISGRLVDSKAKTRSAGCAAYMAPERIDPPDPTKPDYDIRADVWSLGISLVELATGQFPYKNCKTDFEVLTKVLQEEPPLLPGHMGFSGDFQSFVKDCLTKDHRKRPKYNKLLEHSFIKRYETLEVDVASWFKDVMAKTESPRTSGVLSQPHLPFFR
Experimental: as §1

[5] = Test conc 0.1 μM, N/E* = PoC for JNK1 = 100

SMILES | remaining binding at 0.1 µM [1] | Selectivity JNK1/MKK4 [2, 5] | Selectivity BRaf/MKK4 [3] | Selectivity MKK7/MKK4 [4] | Selectivity JNK1/MKK4 ([2]; Test conc 10 μM) | remaining binding at 1 µM [1]
CCCS(=O)(=O)Nc1cccc(C(=O)c2c[nH]c3ncc(-c4ccc(Cl)cc4)cc23)c1C [Example 25, N-(3-(5-(4-Chlorophenyl)-1H-pyrrolo[2,3-b]pyridine-3-carbonyl)-2-methylphenyl)propane-1-sulfonamide] | > 30% | N/E* (PoC for JNK1 = 100) | 1.0 | 1.0 | – | –
CCCS(=O)(=O)Nc1ccc(F)c(C(=O)c2c[nH]c3ncc(-c4ccc(OC(C)C)cc4Cl)cc23)c1F [Example 96, N-(3-(5-(2-chloro-4-isopropoxy-phenyl)-1H-pyrrolo[2,3-b]pyridine-3-carbonyl)-2,4-difluorophenyl)-propane-1-sulfonamide] | 10 to 30% | 8.7 | 8.0 | N/E* (PoC for JNK1 = 100) | – | –
CCCOc1ccc(-c2cnc3[nH]cc(C(=O)c4c(F)ccc(NS(=O)(=O)CCC)c4F)c3c2)c(Cl)c1 [Example 97, N-(3-(5-(2-chloro-4-propoxy-phenyl)-1H-pyrrolo[2,3-b]pyridine-3-carbonyl)-2,4-difluorophenyl)-propane-1-sulfonamide] | 10 to 30% | 8.6 | 6.5 | N/E* (PoC for JNK1 = 100) | – | –
CCCS(=O)(=O)Nc1nc(C(=O)c2c[nH]c3ncc(-c4ccc(Cl)cc4)cc23)cs1 [Example 111, N-(4-(5-(4-chlorophenyl)-1H-pyrrolo[2,3-b]pyridine-3-carbonyl)thiazol-2-yl)propane-1-sulfonamide] | – | N/E* (PoC for JNK1 = 100) | N/E* (PoC for JNK1 = 100) | <1 | – | > 30%
CCCS(=O)(=O)Nc1ccc(F)c(C(=O)c2c[nH]c3ncc(-c4ccc(OCCOC)cc4Cl)cc23)c1F [Example 98, N-(3-(5-(2-chloro-4-(2-methoxy-ethoxy)phenyl)-1H-pyrrolo[2,3-b]pyridine-3-carbonyl)-2,4-difluorophenyl)propane-1-sulfonamide] | < 10% | 16 | 8.4 | 20 | – | –
CCCS(=O)(=O)Nc1ccc(F)c(C(=O)c2c[nH]c3ncc(-c4ccc(OCOC)cc4Cl)cc23)c1F [Example 102, N-(3-(5-(2-chloro-4-(methoxymethoxy)phenyl)-1H-pyrrolo[2,3-b]pyridine-3-carbonyl)-2,4-difluorophenyl)propane-1-sulfonamide] | < 10% | N/E* (PoC for JNK1 = 100) | 17 | N/E* (PoC for JNK1 = 100) | – | –
CCCS(=O)(=O)Nc1cc(C)cc(C(=O)c2c[nH]c3ncc(-c4ccc(Cl)cc4)cc23)c1 [Example 24, N-(3-(5-(4-Chlorophenyl)-1H-pyrrolo[2,3-b]pyridine-3-carbonyl)-5-methylphenyl)propane-1-sulfonamide] | > 30% | N/E* (PoC for JNK1 = 100) | 0.9 | 1.0 | – | –
CCCS(=O)(=O)Nc1ccc(F)c(C(=O)c2c[nH]c3ncc(-c4ccc(OC5CCCC5)cc4Cl)cc23)c1F [Example 99, N-(3-(5-(2-chloro-4-(cyclopentyl-oxy)phenyl)-1H-pyrrolo[2,3-b]pyridine-3-carbonyl)-2,4-difluorophenyl)propane-1-sulfonamide] | > 30% | 2.0 | 1.9 | 2.0 | – | –
CCCCS(=O)(=O)Nc1cccc(C(=O)c2c[nH]c3ncc(-c4ccc(F)cc4C)cc23)c1F [Example 51] | < 10% | N/E* (PoC for JNK1 = 100) | N/E* (PoC for JNK1 = 100) | N/E* (PoC for JNK1 = 100) | – | –

The next lines start with the values.

remaining binding at 0.1 µM [1] | Selectivity JNK1/MKK4 [2, 5] | Selectivity BRaf/MKK4 [3] | Selectivity MKK7/MKK4 [4] | Selectivity JNK1/MKK4 ([2]; Test conc 10 μM) | remaining binding at 1 µM [1] | SMILES
< 10% | 28 | 7.2 | N/E* (PoC for JNK1 = 100) | – | – | CCCS(=O)(=O)Nc1ccc(F)c(C(=O)c2c[nH]c3ncc(-c4ccccc4)cc23)c1F [Example 101, N-(2,4-difluoro-3-(5-phenyl-1H-pyrrolo[2,3-b]pyridine-3-carbonyl)phenyl)propane-1-sulfonamide]
10 to 30% | – | 1.5 | 10 | 23 | – | CCCS(=O)(=O)Nc1ccc(F)c(C(=O)c2c[nH]c3ncc(-c4cccc(C#N)c4)cc23)c1F [Example 14, N-(3-(5-(3-Cyanophenyl)-1H-pyrrolo[2,3-b]pyridine-3-carbonyl)-2,4-difluorophenyl)propane-1-sulfonamide]
> 30% | – | 1.6 | 3 | 40 | – | CCCS(=O)(=O)Nc1ccc(F)c(C(=O)c2c[nH]c3ncc(-c4cccc5ccccc45)cc23)c1F [Example 18, N-(2,4-Difluoro-3-(5-(naphthalen-1-yl)-1H-pyrrolo[2,3-b]pyridine-3-carbonyl)phenyl)propane-1-sulfonamide]
> 30% | N/E* (PoC for JNK1 = 100) | 3.3 | 3.3 | – | – | CCCS(=O)(=O)Nc1ccc(F)c(C(=O)c2c[nH]c3ncc(-c4ccc(Cl)cc4Cl)cc23)c1F [Example 41, N-(3-(5-(2,4-Dichlorophenyl)-1H-pyrrolo[2,3-b]pyridine-3-carbonyl)-2,4-difluorophenyl)propane-1-sulfonamide]
> 30% | – | 4.2 | 6.7 | >10 | – | CCCS(=O)(=O)Nc1ccc(F)c(C(=O)c2c[nH]c3ncc(-c4ccccc4O)cc23)c1F [Example 9, N-(2,4-Difluoro-3-(5-(2-hydroxyphenyl)-1H-pyrrolo[2,3-b]pyridine-3-carbonyl)phenyl)propane-1-sulfonamide]
> 30% | – | 0.5 | 7.6 | >100 | – | CCCS(=O)(=O)Nc1ccc(F)c(C(=O)c2c[nH]c3ncc(-c4ccc(SC)cc4)cc23)c1F [Example 8, N-(2,4-Difluoro-3-(5-(4-(methylthio)phenyl)-1H-pyrrolo[2,3-b]pyridine-3-carbonyl)phenyl)propane-1-sulfonamide]
> 30% | – | 0.1 | 5.6 | >100 | – | CCCS(=O)(=O)Nc1ccc(F)c(C(=O)c2c[nH]c3ncc(-c4cnc5ccccc5c4)cc23)c1F [Example 6, N-(2,4-Difluoro-3-(5-(quinolin-3-yl)-1H-pyrrolo[2,3-b]pyridin-3-carbonyl)phenyl)propane-1-sulfonamide]
10 to 30% | – | 2.0 | 30 | >100 | – | CCCS(=O)(=O)Nc1ccc(F)c(C(=O)c2c[nH]c3ncc(-c4ccc5c(c4)OCCO5)cc23)c1F [Example 15, N-(3-(5-(2,3-Dihydrobenzo[b][1,4]dioxin-6-yl)-1H-pyrrolo[2,3-b]pyridine-3-carbonyl)-2,4-difluorophenyl)propane-1-sulfonamide]
< 10% | 7.1 | 8.9 | N/E* (PoC for JNK1 = 100) | – | – | CCCS(=O)(=O)Nc1ccc(F)c(C(=O)c2c[nH]c3ncc(-c4ccc(Cl)cc4F)cc23)c1F [Example 49]
10 to 30% | – | 2.8 | 25 | >400 | – | CCCS(=O)(=O)Nc1ccc(F)c(C(=O)c2c[nH]c3ncc(-c4ccc(C#N)cc4)cc23)c1F [Example 4, N-(3-(5-(4-Cyanophenyl)-1H-pyrrolo[2,3-b]pyridine-3-carbonyl)-2,4-difluorophenyl)propane-1-sulfonamide]
10 to 30% | – | 6.3 | 25 | >100 | – | CCCS(=O)(=O)Nc1ccc(F)c(C(=O)c2c[nH]c3ncc(-c4ccc(F)cc4)cc23)c1F [Example 11, N-(2,4-Difluoro-3-(5-(4-fluorophenyl)-1H-pyrrolo[2,3-b]pyridine-3-carbonyl)phenyl)propane-1-sulfonamide]

— patent US11040027B2, “Protein kinase inhibitors for promoting liver regeneration or reducing or preventing hepatocyte death” (HEPAREGENIX GMBH, priority 2017, dated 2021)
